Data reported in paper PMC5860131, “Identification of natural products as novel ligands for the human 5-HT2C receptor” (Biophysics Reports, 2018).

Assays:
Format in all cases: binding
[1] = target: T1, 5-HT2C receptor A222^5.46F (Homo sapiens, UniProt P28335, A222F/DEL255-298/G251D/H250E/H252N/INS299[…]/L248D/M247A/M300L/T253W); test: CPM thermal stability assay, 5-HT2C mutant A222F; details: mutant A222^5.46F, n = 2
T1 construct: the N- and C-terminals were truncated by 39 and 65 residues, respectively; PreScission protease site + 10× His (C); made in house
Source text: (§1) Based on the binding poses predicted by molecular docking, single-point mutations were designed to test their impact on ligand binding. Mutations of several residues include the highly conserved Asp134^3.32, which is known to cause 5-HT1B or 5-HT2B receptors to abolish the monoamine ligand binding as reported in the literature (Wang et al. [2013]). In this study, residues forming hydrophobic interactions with the substitution groups on the aporphine scaffold of (–)-crebanine (1) were selected for mutation as well and they are Thr139^3.37, Gly218^5.42, Ala222^5.46, and Leu209^ECL2. Effects of those mutations were tested with the CPM assay and the affinity MS assay (Table 2). In the affinity MS experiment, relative ligand-binding capacity (represented by binding %) to different mutants and the wild-type receptor was compared. […]
(§2) Purified 5-HT2C receptor protein was thoroughly mixed with CPM fluorescent dyes. […] Fluorescence signals, wavelength 387 nm (excitation) and 463 nm (emission), were monitored (Alexandrov et al. [2008]). […] The thermal denaturation of the samples was evaluated using the scatter plot curve, where the horizontal coordinates represented temperature and the vertical coordinates indicated normalized fluorescence intensity recorded for a particular temperature. […]

[2] = target: T2, 5-HT2C receptor A222^5.46V (Homo sapiens, UniProt P28335, A222V/DEL255-298/G251D/H250E/H252N/INS299[…]/L248D/M247A/M300L/T253W); test: CPM thermal stability assay, 5-HT2C mutant A222V
T2 construct: the N- and C-terminals were truncated by 39 and 65 residues, respectively; PreScission protease site + 10× His (C); made in house
Source text: as §1, §2

[3] = target: T2, 5-HT2C receptor A222^5.46V; test: Affinity MS assay, 5-HT2C mutant A222V; details: mutant A222^5.46V, n = 2
Source text: as §1, with “compared. Among the six mutations tested, five of them reduced the binding of (–)-crebanine (1) by more than 40% relative to binding to the wild-type receptor, displaying the importance of hydrophobic interactions.” for “compared.”
(§3) Four experimental replicates were prepared for each pair of the test ligand and the negative control. […] S/C ratios refer to the ratio of MS response of a specific ligand detected in the 5-HT2C incubation sample versus the control. […]

[4] = target: T3, 5-HT2C receptor G218^5.42S (Homo sapiens, UniProt P28335, DEL255-298/G218S/G251D/H250E/H252N/INS299[…]/L248D/M247A/M300L/T253W); test: CPM thermal stability assay, 5-HT2C mutant G218S
T3 construct: the N- and C-terminals were truncated by 39 and 65 residues, respectively; PreScission protease site + 10× His (C); made in house
Source text: as §1, §2

[5] = target: T1, 5-HT2C receptor A222^5.46F; test: Affinity MS assay, 5-HT2C mutant A222F; details: mutant A222^5.46F, n = 2
Source text: as §1, with “compared. Among the six mutations tested, five of them reduced the binding of (–)-crebanine (1) by more than 40% relative to binding to the wild-type receptor, displaying the importance of hydrophobic interactions.” for “compared.”
as §3

T2 sequence (P28335 with tags, fused parts or gaps with the stated changes): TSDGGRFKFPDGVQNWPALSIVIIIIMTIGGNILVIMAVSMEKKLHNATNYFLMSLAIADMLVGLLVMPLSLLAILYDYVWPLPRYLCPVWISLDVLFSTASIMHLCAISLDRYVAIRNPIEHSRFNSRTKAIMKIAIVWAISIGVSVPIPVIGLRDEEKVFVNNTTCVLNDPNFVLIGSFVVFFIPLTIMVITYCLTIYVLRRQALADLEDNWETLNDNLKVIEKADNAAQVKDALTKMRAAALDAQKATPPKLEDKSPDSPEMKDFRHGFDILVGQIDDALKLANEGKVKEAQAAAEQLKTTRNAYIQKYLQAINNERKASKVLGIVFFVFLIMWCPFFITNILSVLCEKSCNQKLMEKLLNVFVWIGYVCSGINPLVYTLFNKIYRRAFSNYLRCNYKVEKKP
T3 sequence (P28335 with tags, fused parts or gaps with the stated changes): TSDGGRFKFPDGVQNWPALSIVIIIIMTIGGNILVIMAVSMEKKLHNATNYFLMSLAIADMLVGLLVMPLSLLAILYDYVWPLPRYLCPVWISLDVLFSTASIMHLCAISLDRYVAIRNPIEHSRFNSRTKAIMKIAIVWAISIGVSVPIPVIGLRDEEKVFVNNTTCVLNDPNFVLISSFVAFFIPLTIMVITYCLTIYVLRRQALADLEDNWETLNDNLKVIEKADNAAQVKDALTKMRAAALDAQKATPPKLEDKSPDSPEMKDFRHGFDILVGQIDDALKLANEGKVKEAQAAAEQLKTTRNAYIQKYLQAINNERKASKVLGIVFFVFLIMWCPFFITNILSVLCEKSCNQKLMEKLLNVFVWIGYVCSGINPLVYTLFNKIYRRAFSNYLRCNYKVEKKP
T1 sequence (P28335 with tags, fused parts or gaps with the stated changes): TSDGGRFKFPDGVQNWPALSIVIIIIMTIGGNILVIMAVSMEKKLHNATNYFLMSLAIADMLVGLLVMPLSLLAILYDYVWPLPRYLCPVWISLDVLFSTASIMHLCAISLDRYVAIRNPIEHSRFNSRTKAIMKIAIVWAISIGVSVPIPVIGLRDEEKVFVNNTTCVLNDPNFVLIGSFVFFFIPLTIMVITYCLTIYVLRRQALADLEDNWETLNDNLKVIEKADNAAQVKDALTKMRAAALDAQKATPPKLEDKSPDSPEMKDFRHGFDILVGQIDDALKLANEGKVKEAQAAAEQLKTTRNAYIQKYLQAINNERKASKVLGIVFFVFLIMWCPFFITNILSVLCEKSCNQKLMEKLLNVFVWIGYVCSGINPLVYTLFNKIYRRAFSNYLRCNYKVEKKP

SMILES: COc1ccc2c(c1OC)C[C@@H]1c3c(cc4c(c3-2)OCO4)CCN1C [Compound 1, (–)-crebanine]
- (–)-Crebanine/CPM (Tm) [1]: 55.70 °C
- (–)-Crebanine/CPM (Tm) ([2]; mutant A222^5.46V, n = 2): 59.55 °C
- Tm value decrease versus wild-type ([2]; mutation Ala222^5.46Val): 0.38 °C
- (–)-Crebanine/MS relative ligand binding [3]: 25.84%
- (–)-Crebanine/CPM (Tm) ([4]; mutant G218^5.42S, n = 2): 53.24 °C
- Tm value decrease versus wild-type ([4]; mutation Gly218^5.42Ser): over 6.0 °C
- (–)-Crebanine/MS relative ligand binding [5]: 15.87%
